# Reference: ChEMBL document CHEMBL1201862, “PubChem BioAssay data set” (2004)
#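 Interpolation was linear, between the two tested concentrations surrounding the appropriate level; five concentrations were tested over 48 hours in 96-well plates. GI50: concentration for 50% inhibition of growth.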 Active and inactive are the calls of the source. Rule as the data show it: active = GI50 up to about 1.1 µM and inactive = higher.
# Columns and labels:
# Test in all cases: inhibition of tumour cell growth, NCI panel, 48 h
# OVCAR-3 = test system: OVCAR-3
# MDA-MB-231 = test system: MDA-MB-231
# MDA-N = test system: MDA-N
# COLO 205 = test system: COLO 205
# NCI-H522 = test system: NCI-H522
# NCI-H226 = test system: NCI-H226
# SK-OV-3 = test system: SK-OV-3
# RXF 393 = test system: RXF 393
# SK-MEL-5 = test system: SK-MEL-5
# UACC-257 = test system: UACC-257
# BT-549 = test system: BT-549
# HOP-92 = test system: HOP-92
# UACC-62 = test system: UACC-62
# SN12C = test system: SN12C
# KM12 = test system: KM12
# SK-MEL-28 = test system: SK-MEL-28
# M14 = test system: M14
# SK-MEL-2 = test system: SK-MEL-2
# HOP-62 = test system: HOP-62
# SF-539 = test system: SF-539
# HCT-116 = test system: HCT-116
# OVCAR-5 = test system: OVCAR-5
# SNB-75 = test system: SNB-75
# CAKI-1 = test system: CAKI-1
# MDA-MB-435 = test system: MDA-MB-435
# OVCAR-8 = test system: OVCAR-8
# ACHN = test system: ACHN
# Hs-578T = test system: Hs-578T
# K562 = test system: K562
# U-251 = test system: U-251
# MCF7 = test system: MCF7
# PC-3 = test system: PC-3
# SW-620 = test system: SW-620
# MOLT-4 = test system: MOLT-4
# LOX IMVI = test system: LOX IMVI
# CCRF-CEM = test system: CCRF-CEM
# SF-295 = test system: SF-295
# Malme-3M = test system: Malme-3M
# EKVX = test system: EKVX
# HCT-15 = test system: HCT-15
# OVCAR-4 = test system: OVCAR-4
# IGROV-1 = test system: IGROV-1
# HL-60 = test system: HL-60
# SNB-19 = test system: SNB-19
# 786-0 = test system: 786-0
# A549 = test system: A549
# SF-268 = test system: SF-268
# HCC 2998 = test system: HCC 2998
# NCI/ADR-RES = test system: NCI/ADR-RES
# A498 = test system: A498
# NCI-H460 = test system: NCI-H460
# TK-10 = test system: TK-10
# RPMI-8226 = test system: RPMI-8226
# HT-29 = test system: HT-29
# DU-145 = test system: DU-145
# SR = test system: SR
# NCI-H23 = test system: NCI-H23
# UO-31 = test system: UO-31
# T47D = test system: T47D
structure (smiles),measurement,setting,value
Cc1ccc(-c2c(C#N)c(-c3ccc([N+](=O)[O-])cc3)c(C#N)c(=O)n2NS(=O)(=O)c2ccc(C)cc2)cc1,GI50,OVCAR-3,21.2 µM (inactive)
same,GI50,MDA-MB-231,61.9 µM (inactive)
same,GI50,MDA-N,75.9 µM (inactive)
same,GI50,COLO 205,80.4 µM (inactive)
same,GI50,NCI-H522,31.8 µM (inactive)
same,GI50,NCI-H226,> 100 µM (inactive)
same,GI50,SK-OV-3,36.6 µM (inactive)
same,GI50,RXF 393,52.2 µM (inactive)
same,GI50,SK-MEL-5,19.8 µM (inactive)
same,GI50,UACC-257,> 100 µM (inactive)
same,GI50,BT-549,16.5 µM (inactive)
same,GI50,HOP-92,23.5 µM (inactive)
same,GI50,UACC-62,31 µM (inactive)
same,GI50,SN12C,50 µM (inactive)
same,GI50,KM12,30.2 µM (inactive)
same,GI50,SK-MEL-28,52.8 µM (inactive)
same,GI50,M14,54.1 µM (inactive)
same,GI50,SK-MEL-2,62.4 µM (inactive)
same,GI50,HOP-62,67.1 µM (inactive)
same,GI50,SF-539,38.1 µM (inactive)
same,GI50,HCT-116,36.6 µM (inactive)
same,GI50,OVCAR-5,> 100 µM (inactive)
same,GI50,SNB-75,74.5 µM (inactive)
same,GI50,CAKI-1,50.6 µM (inactive)
same,GI50,MDA-MB-435,86.9 µM (inactive)
same,GI50,OVCAR-8,49.1 µM (inactive)
same,GI50,ACHN,51.9 µM (inactive)
same,GI50,Hs-578T,30.7 µM (inactive)
same,GI50,K562,46.2 µM (inactive)
same,GI50,U-251,44.8 µM (inactive)
same,GI50,MCF7,24.9 µM (inactive)
same,GI50,PC-3,42.8 µM (inactive)
same,GI50,SW-620,51.6 µM (inactive)
same,GI50,MOLT-4,19.8 µM (inactive)
same,GI50,LOX IMVI,33.4 µM (inactive)
same,GI50,CCRF-CEM,25.9 µM (inactive)
same,GI50,SF-295,40.9 µM (inactive)
same,GI50,Malme-3M,96.4 µM (inactive)
same,GI50,EKVX,47.5 µM (inactive)
same,GI50,HCT-15,41.6 µM
same,GI50,OVCAR-4,41.5 µM (inactive)
same,GI50,IGROV-1,24.7 µM (inactive)
same,GI50,HL-60,31.3 µM (inactive)
same,GI50,SNB-19,56.6 µM (inactive)
same,GI50,786-0,65 µM (inactive)
same,GI50,A549,51.9 µM (inactive)
same,GI50,SF-268,79.3 µM (inactive)
same,GI50,HCC 2998,29.4 µM (inactive)
same,GI50,NCI/ADR-RES,38.1 µM (inactive)
same,GI50,A498,67.8 µM (inactive)
same,GI50,NCI-H460,39.8 µM (inactive)
same,GI50,TK-10,51.3 µM (inactive)
same,GI50,RPMI-8226,18.9 µM (inactive)
same,GI50,HT-29,56.4 µM (inactive)
CN(C)CCNc1nc2c(no[n+]2[O-])c2ccccc12.[O-][Cl+3]([O-])([O-])O,GI50,OVCAR-3,30.8 µM (inactive)
same,GI50,MDA-MB-231,14.8 µM (inactive)
same,GI50,DU-145,6.19 µM (inactive)
same,GI50,MDA-N,28.9 µM (inactive)
same,GI50,COLO 205,16.9 µM (inactive)
same,GI50,NCI-H522,24.4 µM (inactive)
same,GI50,NCI-H226,16.1 µM (inactive)
same,GI50,SR,15.1 µM (inactive)
same,GI50,SK-OV-3,32.1 µM (inactive)
same,GI50,RXF 393,17.5 µM (inactive)
same,GI50,SK-MEL-5,15.2 µM (inactive)
same,GI50,UACC-257,16.8 µM (inactive)
same,GI50,NCI-H23,34.4 µM (inactive)
same,GI50,HOP-92,22.1 µM (inactive)
same,GI50,UACC-62,21 µM (inactive)
same,GI50,SN12C,25.6 µM (inactive)
same,GI50,KM12,21.1 µM (inactive)
same,GI50,SK-MEL-28,18.5 µM (inactive)
same,GI50,M14,15.7 µM (inactive)
same,GI50,SK-MEL-2,19.4 µM (inactive)
same,GI50,HOP-62,13 µM (inactive)
same,GI50,SF-539,11.5 µM (inactive)
same,GI50,HCT-116,12.4 µM (inactive)
same,GI50,OVCAR-5,38 µM (inactive)
same,GI50,SNB-75,23.7 µM (inactive)
same,GI50,CAKI-1,26.1 µM (inactive)
same,GI50,MDA-MB-435,18 µM (inactive)
same,GI50,OVCAR-8,14.6 µM (inactive)
same,GI50,ACHN,13.8 µM (inactive)
same,GI50,Hs-578T,40.6 µM (inactive)
same,GI50,K562,28.8 µM (inactive)
same,GI50,U-251,31.5 µM (inactive)
same,GI50,MCF7,19.7 µM (inactive)
same,GI50,UO-31,19.5 µM (inactive)
same,GI50,PC-3,28 µM (inactive)
same,GI50,SW-620,11.1 µM (inactive)
same,GI50,MOLT-4,32.4 µM (inactive)
same,GI50,LOX IMVI,16.8 µM (inactive)
same,GI50,CCRF-CEM,30.3 µM (inactive)
same,GI50,SF-295,28 µM (inactive)
same,GI50,T47D,57.9 µM (inactive)
same,GI50,Malme-3M,22.5 µM (inactive)
same,GI50,EKVX,26.1 µM (inactive)
same,GI50,HCT-15,18 µM
same,GI50,OVCAR-4,30.4 µM (inactive)
same,GI50,IGROV-1,18 µM (inactive)
same,GI50,SNB-19,20.7 µM (inactive)
same,GI50,786-0,18.7 µM (inactive)
same,GI50,A549,16.7 µM (inactive)
same,GI50,SF-268,4.42 µM (inactive)
same,GI50,HCC 2998,28.2 µM (inactive)
same,GI50,NCI/ADR-RES,31.2 µM (inactive)
same,GI50,A498,13.7 µM (inactive)
same,GI50,NCI-H460,19.5 µM (inactive)
same,GI50,TK-10,24.9 µM (inactive)
same,GI50,RPMI-8226,52.7 µM (inactive)
same,GI50,HT-29,27.6 µM (inactive)
